According to US11576901B2, “Methods for treating viral infection” (HOWARD UNIVERSITY, priority 2016, dated 2023):

Tests used:
Format in all cases: cell-based
[1] = system: HIV1 modified pNL4-3.Luc.R-E-virus; test: Luciferase luminescence of CEM T cells infected with HIV1 modified pNL4-3.Luc.R-E-virus; design: dose or concentration left out as unconfirmed; details: CEM T cells pretreated before infection; vs untreated and DMSO; FIG. 2
Description: The expression of the protein assessed may be native, i.e. naturally occurring within the genome of the virus to be treated. In combination or the alternative, expression of a protein introduced to the viral genome may be assessed. Assessing the expression of an introduced protein may enable an assessment of viral proliferation by means not normally permitted by the native viral genome. For example, proliferation of the HIV1 virus can be assessed using luminescence with the HIV1 modified pNL4-3.Luc.R-E-virus. […] Accordingly, proliferation of the HIV1 modified pNL4-3.Luc.R-E-virus will entail production of the luciferase protein. […]
Accordingly, compounds in accordance with General Formula 1, including derivatives in accordance with General Formulae 1-1 to 1-20, or pharmaceutically acceptable salts thereof, can be assessed for the ability to inhibit proliferation of the HIV1 by infecting CEM T cells with the HIV1 modified pNL4-3.Luc.R-E-virus. […]
Prior to infection with the HIV1 modified pNL4-3.Luc.R-E-virus, the CEM T cells were pretreated with either SD-29 or DMSO ([…]) or left untreated. […] To assess luminescence, 100 μL of the cell suspension and […] of reconstituted luciferase buffer (Luclite Kit, Perkin Elmer) were added to wells and allowed to incubate for 10 minutes. […]

[2] = system: HIV1 modified pNL4-3.Luc.R-E-virus; test: Western assay of HIV p24 gag expression in infected CEM T cells; details: Western assay with HIV p24 antibody, FIG. 4
Description: The ability of a compound in accordance with General Formula 1, including derivatives in accordance with General Formulae 1-1 to 1-20, or pharmaceutically acceptable salts thereof, to inhibit the expression of at least a portion of a virus genome containing an IRES sequence can be also be determined by assessing the expression of a native protein within a viral genome. In some embodiments, the ability of a compound or pharmaceutically acceptable salt to inhibit expression of native protein can be assessed by using antibodies for a protein normally expressed from the virus genome. For example, HIV p24 gag is a protein normally expressed by HIV1 that can be detected using the HIVI p24 antibody. Accordingly, compounds in accordance with General Formula 1, including derivatives in accordance with any of General Formulae 1-1 to 1-20, or pharmaceutically acceptable salts thereof, can be assessed for the ability to inhibit proliferation of the HIV1 by infecting CEM T cells with the HIV1 modified pNL4-3.Luc.R-E-virus and assessing the expression of HIV p24 gag with the HIV p24 antibody. […]
A compound or salt may be wrongly classified as capable of inhibiting expression of at least a portion of a virus genome containing an IRES sequence due to unequal loading of proteins within an assay. […] In some embodiments, equivalent protein loading can be assessed by ponceau staining. […]

RACK-1 = target: T1, RACK-1 (Homo sapiens, UniProt P63244); test: Western assay of RACK-1 expression in HSV-1 infected Hep-2 cells; details: 100 μM, 24 hours pretreatment, twenty hours after infection, FIG. 6
T1 construct: endogenous in cells; host or cells: Hep-2 cells infected with HSV-1
Method: FIG. 6 is a Western assay showing expression of RACK-1, the IE protein ICP0, DE protein ICP8 and the L protein gD following infection of Hep-2 cells at varying multiplicity of infection (MOI) of HSV-1. In FIG. 6, ICP0 designates immediate early viral protein, ICP8 designates early viral protein, and dD designates late viral protein. Tubulin was used as a sample loading control. Prior to infection, Hep-2 cells were treated with DSMO as a control, 100 μM SD-29 or 100 μM SD29-12. After 24 hours of pretreatment, the Hep-2 cells were infected with HSV-1 at either 0.01, 0.05, 0.25 or 1.25 MOI (from 0.01 to 1.25). Twenty hours after infection, whole cell lysate samples were obtained and the Western assay shown in FIG. 6 was performed to examine protein levels.

Nn1c(S)nnc1-c1ccc(F)cc1 [SD-29]
luminescence / proliferation of the HIV1 modified pNL4-3.Luc.R-E-virus [1]: significantly reduced proliferation | expression of HIV p24 gag [2]: does inhibit expression | expression of RACK-1 (RACK-1): reduced expression of RACK-1
